In patent US20110189174A1, “COMPOSITIONS AND METHODS FOR TREATING, REDUCING, AMELIORATING, ALLEVIATING, OR INHIBITING PROGRESSION OF, PATHOGENIC OCULAR NEOVASCULARIZATION” (priority 2010, published 2011):

Columns and labels:
[1] = test system: human retinal endothelial cells (HREC); assay: Testing 4: VEGF-induced HREC proliferation (MTS assay), Avastin with or without BOL-303050-X; type: cell-based; details: for HREC proliferation in the presence of VEGF, compound alone: VEGF 10 ng/ml, 3 days
Description: HREC were first cultured overnight in a 96-well plate coated with fibronectin. The next day, cells were serum-starved for 2 hours before treatment. […] The cells were then cultured at 37° C., 5% CO2, and 95% humidity for another 3 days.
A 96-well plate was coated with human fibronectin (10 μg/ml) at 37° C. for 5 h. HREC were collected from flasks by EDTA-trypsin treatment and re-suspended in 10% FBS CS-C medium at 18,000 cells/ml. Cells (200 μl/well) were added to the plate and cultured overnight at 37° C., 5% CO2, and 95% humidity. The next day, medium was aspirated and 200 μl/well serum-free medium was added for 2 h at 37° C., 5% CO2, and 95% humidity.
Normal IgG was added in such a way that all groups contained the same amount of IgG proteins. All medium solutions were incubated for 1 h at 37° C., 5% CO2, and 95% humidity. After carefully aspirating the medium from cells, 200 μl of the medium containing different agents were added into appropriate wells. The cells were further cultured for 3 days.
At the end of incubation, the medium was carefully aspirated from cells and 120 μl of MTS working solution was added into all wells including four blank wells (without cells). The plate was incubated at 37° C., 5% CO2, and 95% humidity for 1 hour and then read by a plate reader at 490 nm wavelength.
Median optical density (OD) was generated from different groups. Data were expressed as mean±SEM of the OD values. Statistical analysis was performed using two-way ANOVA followed by the contrast procedure after Box-Cox transformations if needed, and p<0.05 was considered statistically significant. […] All the data from the individual wells were fitted to a re-parameterized four-parameter logistic equation to obtain IC50 using similar methodology as that previously described and utilizing the statistical analysis software JMP (SAS Institute, Cary, N.C.).

[2] = test system: human retinal endothelial cells (HREC); assay: Testing 7: VEGF-induced HREC proliferation (MTS assay), integrin antagonists and Lucentis alone and in combination; type: cell-based; details: study II; compound 1 nM; Lucentis 1 ng/mL
[3] = Clinical ophthalmic examination in monkeys (vitreal cell scores, anterior chamber inflammation); type: in vivo, cynomolgus monkeys (Macaca fascicularis); details: for Vitreal cell score: number of eyes with grade 0 / Vitreal cell score: number of eyes with grade 1 / Vitreal cell score: number of eyes with grade 2 / Vitreal cell score: number of eyes with grade 3 / Vitreal cell score: number of eyes with grade 4 / Vitreal cell score: number of eyes with grade Trace: intravitreal days 1 and 15, cells not distinguishable from dispersed drug
Description: Once the phase Ib study was completed, and it was established that the drug suspension in oil would not interfere with either laser administration, evaluation of CNV or cause adverse effects, phase II was initiated. On days 1, and 15 both eyes of monkeys received 50 μL of Lucentis (0.5 mg/eye), vehicle (0 mg/eye), BOL-303050-X (1.5 mg/eye), BOL-303054-X (1.5 mg/eye) or BOL-303055-X (1.5 mg/eye) (Table 2). Intravitreous injection was performed for each by eye aiming towards mid-vitreous body. Dosing in the right eye was alternated for successive doses (as applicable) at approximately the 11 o'clock and 10 o'clock positions. Dosing in the left eye was alternated for successive doses (as applicable) from approximately the 1 o'clock and 2 o'clock positions.
Animals were examined at baseline, on days 1, 3, 7, 15, and 31 of Dosing Phase II and on the day of scheduled sacrifice (day 38). On days of dose administration the ophthalmic examination was done prior to dosing.

COc1ccc(S(=O)(=O)N[C@@H](CNc2nc(C)nc(N3CCC(c4ccc5c(n4)NCCC5)CC3)c2C)C(=O)O)cc1 [BOL-303050-X]
HREC proliferation in the presence of VEGF, compound alone ([1]; 1 nM): significantly reduced | HREC proliferation in the presence of VEGF, compound alone ([1]; 10 nM): significantly reduced | HREC proliferation under basal conditions ([1]; 1 and 10 nM tested, no VEGF): significant effects were only observed at 10 nM | Combination effect with Avastin on VEGF-induced HREC proliferation (synergistic/additive) ([1]; compound 1 nM, Avastin 30 to 300 ng/ml): synergistic effects | Combination effect with Avastin on VEGF-induced HREC proliferation (synergistic/additive) ([1]; compound 10 nM, Avastin at all doses): additive effect | Improvement of the potency of Avastin ([1]; compound at 1 and 10 nM): 6- to 7 fold | Combination effect with Lucentis on VEGF-induced HREC proliferation (synergistic/additive) [2]: additive effects | Vitreal cell score: number of eyes with grade 0 ([3]; Day 3): 8 | Vitreal cell score: number of eyes with grade 1 ([3]; Day 3): 5 | Vitreal cell score: number of eyes with grade 2 ([3]; Day 3): 0 | Vitreal cell score: number of eyes with grade 3 ([3]; Day 3): 0 | Vitreal cell score: number of eyes with grade 4 ([3]; Day 3): 1 | Vitreal cell score: number of eyes with grade Trace ([3]; Day 3): 4 | Vitreal cell score: number of eyes with grade 0 ([3]; Day 7): 1 | Vitreal cell score: number of eyes with grade 1 ([3]; Day 7): 4 | Vitreal cell score: number of eyes with grade 2 ([3]; Day 7): 6 | Vitreal cell score: number of eyes with grade 3 ([3]; Day 7): 2 | Vitreal cell score: number of eyes with grade 4 ([3]; Day 7): 5 | Vitreal cell score: number of eyes with grade Trace ([3]; Day 7): 0 | Vitreal cell score: number of eyes with grade 0 ([3]; Day 15): 1 | Vitreal cell score: number of eyes with grade 1 ([3]; Day 15): 8 | Vitreal cell score: number of eyes with grade 2 ([3]; Day 15): 2 | Vitreal cell score: number of eyes with grade 3 ([3]; Day 15): 1 | Vitreal cell score: number of eyes with grade 4 ([3]; Day 15): 4 | Vitreal cell score: number of eyes with grade Trace ([3]; Day 15): 2 | Vitreal cell score: number of eyes with grade 0 ([3]; Day 31): 0 | Vitreal cell score: number of eyes with grade 1 ([3]; Day 31): 2 | Vitreal cell score: number of eyes with grade 2 ([3]; Day 31): 1 | Vitreal cell score: number of eyes with grade 3 ([3]; Day 31): 1 | Vitreal cell score: number of eyes with grade 4 ([3]; Day 31): 11 | Vitreal cell score: number of eyes with grade Trace ([3]; Day 31): 0 | Vitreal cell score: number of eyes with grade 0 ([3]; Day 38): 0 | Vitreal cell score: number of eyes with grade 1 ([3]; Day 38): 1 | Vitreal cell score: number of eyes with grade 2 ([3]; Day 38): 0 | Vitreal cell score: number of eyes with grade 3 ([3]; Day 38): 3 | Vitreal cell score: number of eyes with grade 4 ([3]; Day 38): 12 | Vitreal cell score: number of eyes with grade Trace ([3]; Day 38): 0 | Drug-related ocular findings ([3]; oil formulation, 1.5 mg/eye intravitreal): No drug-related ocular findings were reported
